Converted amounts (≈) assume the structure as drawn. Like-named read-outs stand apart in the source and are kept apart here.

The text below walks through data of patent publication US20060194748A1, “Methods for treating disorders induced by H. pylori infections and pharmaceutical compositions for the same” (National University Corporation Nagoya University, priority 2005, published 2006).

One test concerns H. pylori strains. Nature of the test: MIC of CLR for donor strains and CLR-resistant isogenic mutants (agar/disk dilution). In kind it is cell-based, Helicobacter pylori. On the procedure: The susceptibilities of the CLR-resistant strains were determined by the agar dilution method (27). […] The MIC of glycine was defined as the lowest concentration that inhibited the visible growth of isolates completely by the agar dilution method on Mueller-Hinton agar (Becton Dickinson and Company, Paramus, N.J.) plates supplemented with 5% aged sheep blood (Nippon Bio-Test Laboratories Inc., Tokyo, Japan) (M-H agar) (27).
(§1) Briefly, all isolates were incubated for 4 days on BB agar. After this incubation, inocula were prepared by suspending growth from the BB agar plates with antimicrobial agents in saline to achieve a suspension equivalent to a 2.0 McFarland standard. Final inocula of 10^6 CFU/spot were applied to M-H agar or BB. All plates were incubated for 3 days at 35° C. in a microaerophilic atmosphere, and the number of CFU was counted. In the liquid culture study, aliquots from each culture were applied to BB agar after 3 days of incubation of H. pylori at 37° C. under microaerophilic conditions. After 4 days of incubation, the number of CFU was counted. The mean value for the log number of CFU per milliliter was plotted.
CLR-resistant isogenic mutants with a single point mutation in domain V of the 23S rRNA gene were created from strain 26695 by natural transformation (3, 29). Transformants were isolated, and the MICs of CLR were determined by the disk dilution method.

In the next test the test system is H. pylori 26695. Nature of the test: Time-kill curve test.
Test [1] concerns H. pylori strain 26695. In words: MBC of AMX with glycine by liquid culture method.
Protocol: H. pylori was treated with the indicated concentrations of the test compounds for 3 days. AMX was used at concentrations of 0 to 75 ng/ml. […] The mean value for the log number of CFU per milliliter at each concentration was plotted.
By a second method, the minimal bactericidal concentrations (MBCs), defined as the lowest concentration of each antibiotic that completely killed the isolates, were determined by using liquid cultures with antimicrobial agents by a modification of the method of Sjöström et al. (31). […] After 3 days of incubation of H. pylori at 37° C. under microaerophilic conditions, aliquots from each culture were applied to BB agar for determination of the MBC. After 4 days of incubation, the number of CFU was counted.
For test [2], the system named is 31 H. pylori strains, including CLR-resistant strains. In words: microbe, parasite or virus in culture. Conditions: Helicobacter pylori.
For test [3] the test system is unchanged.
The test system of test [4] is CLR-susceptible and CLR-resistant H. pylori strains. On the procedure: H. pylori strains were treated with the indicated concentrations of test compound for 3 days. The mean value for the log number of CFU per milliliter of all CLR-susceptible and all CLR-resistant H. pylori strains at each concentration was plotted. Glycine was used at concentrations of 0, 0.5, 1, 1.5, 2.0, and 2.5 mg/ml. […] Symbols: ▪, CLR-susceptible strains; ▴, CLR-resistant strains.
as §1

Test [5] has as its system Lactococcus lactis subspecies. Conditions: cited from earlier work.
For test [6], the system named is H. pylori strain 26695.
Protocol: The PAE on bacteria was measured by a modification of the method of Ibrahim et al. (19). After 4 days of growth of strain 26695 on BB agar, the bacteria were harvested, placed into PBS, and diluted with BB to ˜10^8 CFU/ml; and a final inoculum of 10^6 CFU/ml was applied to BB agar. […] After incubation for 8 h, the antibiotics were removed by dilution 1:10^3 into fresh BB and the cultures were incubated for 24 h. Samples were collected for viable counts (numbers of CFU per milliliter) every 4 h, plated onto BB agar plates, and incubated for 4 days. Viability curves were then determined. The control culture, which was not exposed to any antimicrobial agents, was treated similarly.
For quantification of the PAE, viable counts were determined before and after antibiotic exposure.

Protocol for H. pylori 26695: Glycine in BB was added to the cultures at the start of incubation. The mean values for the log number of CFU per milliliter versus time for H. pylori were tested with different concentrations of glycine. At 12-h intervals after drug addition, aliquots of each culture were spread onto BB agar for determination of the number of CFU.
The time course of the antibacterial effects was determined with strain 26695 (18). Briefly, bacteria cultured for 4 days on BB agar were diluted with fresh BB to ˜10^8 CFU/ml. […] At 0, 12, 24, 36, and 48 h, samples were removed and 0.1 ml of 10-fold serial dilution was plated onto BB agar. […] At 0, 6, 12, 18, and 24 h, samples were removed and 0.1 ml of 10-fold serial dilutions was plated onto BB agar. The number of colonies growing on the plates after 4 days of incubation was counted in both studies.

For the compound `CC[C@H]1OC(=O)[C@H](C)[C@@H](O[C@H]2C[C@@](C)(OC)[C@@H](O)[C@H](C)O2)[C@H](C)[C@@H](O[C@@H]2O[C@H](C)C[C@H](N(C)C)[C@H]2O)[C@](C)(OC)C[C@@H](C)C(=O)[C@H](C)[C@@H](O)[C@]1(C)O` [CLR, clarithromycin], the “MIC of CLR” value with H. pylori strains (isogenic mutant strain 26695:535) stood at 4 µg/mL; in the test with H. pylori strains (isogenic mutant strain 26695:628), 32 µg/mL; in the test with H. pylori strains (strain 535 (donor, A-to-G at position 2144)), 4 µg/mL; in the test on H. pylori strains (strain 628 (donor, A-to-G at position 2143)) it was 32 µg/mL.

`CC1(C)S[C@@H]2[C@H](NC(=O)[C@H](N)c3ccc(O)cc3)C(=O)N2[C@H]1C(=O)O` [AMX, amoxicillin]: the “viable cells at 24 h” value in the test with H. pylori 26695 (AMX alone at 75 ng/ml) was “no viable cells”. The “MBC of AMX with glycine relative to that of AMX alone” value with H. pylori strain 26695 [1] was 1/10. The MBC in the test on H. pylori strain 26695 [1] (Helicobacter pylori, 26695, read-out: MBC of AMX with glycine, with glycine at 0.5 mg/ml) was found to be 0.025 µg/mL; with H. pylori strain 26695 [1] (Helicobacter pylori, 26695, read-out: MBC of AMX with glycine, with glycine at 1 mg/ml) it was 0.01 µg/mL; in the test with H. pylori strain 26695 [1] (Helicobacter pylori, 26695, read-out: MBC of AMX, with glycine at 0 mg/ml (AMX alone)), 0.075 µg/mL.

In test [2], `NCC(=O)O` [glycine, Glycine] showed an MIC50 of 1500 µg/mL (≈ 20 mM). This compound also showed an MIC90 in test [2] (31 strains) of 2500 µg/mL (≈ 33.3 mM). Besides, the MIC was 2500 µg/mL in test [2] (ATCC43504, read-out: MIC of glycine); 2500 µg/mL in test [2] (read-out: MIC of glycine); 1000 to 2500 µg/mL (≈ 13.3 to 33.3 mM) in test [2] (read-out: glycine MICs for the 31 strains). The MIC of glycine entry in test [3] is given as “the same as the MIC for strain 26695”. Besides, the “difference in glycine MIC for CLR-susceptible and -resistant strains” value in test [3] is reported as “no difference”. Besides, the “glycine concentration above which no colonies were detected in M-H agar” value in test [3] (all strains tested) is listed as “more than 2.5 mg/ml”. Also, the “difference in suppression of growth between CLR-susceptible and -resistant strains” value in test [4] (including isogenic mutant strains, FIG. 1) is “no difference”. For the same compound, the “80% Inh. %” value in test [4] (see FIG. 1) is 0.05 mg/mL. Also, in test [5], the “glycine content of medium above which growth failed” value was “more than 2%”. Besides, in the test with H. pylori 26695 (glycine alone, all concentrations), the “time of significant decrease in number of CFU (P<0.01)” value was 48 h. Further, the “earliest time of significant decrease in number of CFU (P<0.01)” value in the test with H. pylori 26695 (glycine at 5 mg/ml) is 24 h; in the test on H. pylori 26695 (glycine at 10 mg/ml) it was 12 h. The “nature of the effect of glycine” value in the test with H. pylori 26695 (time-kill, 0 to 10 mg/ml) is on record as “bactericidal”. Further, in the test on H. pylori strain 26695 [6], the “PAE against H. pylori” value is “no PAE”.
